Several values for one entry are separate records, joined by “and”; a condition that tells them apart may be missing. Equal entries are not always repeated. Activity calls are given as the source filed them.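 Rule for the calls: active = compounds raising protection with a fitted AC50 no more than tenfold their highest valid tested dose; inconclusive = flat curve with partial protection, or unreliable curve fit; inactive = the rest.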
Tested on: not listed separately
Test: protection of INS-1E cells from cytokine death, dose response, ATP luminescence, dry powder (AID 488844)
Details: INS-1E cytokine-induced death rescue, ATP luminescence, 48 h; at 23.5 µM (top of the series)

For COc1ccc(S(=O)(=O)N(C)C[C@@H]2Oc3c(cccc3N(C)C)C(=O)N([C@@H](C)CO)C[C@H]2C)cc1, which protection from cytokine death is on record?
The protection from cytokine death was -5.24% (inactive).

For COc1ccc(S(=O)(=O)N(C)C[C@@H]2Oc3c(NC(=O)C4CC4)cccc3C(=O)N([C@@H](C)CO)C[C@H]2C)cc1, which protection from cytokine death is on record?
The protection from cytokine death was 1.51% (inactive).

For C[C@@H]1CN([C@@H](C)CO)C(=O)c2cccc(NC(=O)Nc3cccc4ccccc34)c2O[C@H]1CN(C)C(=O)Nc1ccc(C(F)(F)F)cc1, which protection from cytokine death is on record?
The protection from cytokine death was -33.2% (inactive).

Which protection from cytokine death does the source give for COc1ccc(S(=O)(=O)N(C)C[C@@H]2Oc3c(NC(=O)C4CCOCC4)cccc3C(=O)N([C@@H](C)CO)C[C@H]2C)cc1 here?
The protection from cytokine death was 6.47% (inactive).

For C[C@@H]1CN([C@@H](C)CO)C(=O)c2cccc(NC(=O)Nc3cccc4ccccc34)c2O[C@H]1CN(C)C(=O)Nc1ccccc1, which protection from cytokine death is on record?
Its protection from cytokine death is -1.63% (inactive).

Same assay, conditions: INS-1E cytokine-induced death rescue, ATP luminescence, 48 h; at 26 µM (top of the series)

With C[C@@H]1CN([C@@H](C)CO)C(=O)c2cccc(NS(=O)(=O)c3ccccc3)c2O[C@H]1CN(C)Cc1ccc(C(F)(F)F)cc1 as the compound, how does the protection from cytokine death read?
The protection from cytokine death was -9.86% (inactive).

Which protection from cytokine death does the source give for COc1ccc(S(=O)(=O)N(C)C[C@@H]2Oc3c(NC(=O)c4ccc(-c5nccs5)cc4)cccc3C(=O)N([C@@H](C)CO)C[C@H]2C)cc1 here?
Its protection from cytokine death is 12.6% (inactive).

Which protection from cytokine death does the source give for Cc1noc(C)c1NC(=O)N(C)C[C@@H]1Oc2c(NC(=O)Nc3cccc4ccccc34)cccc2C(=O)N([C@@H](C)CO)C[C@H]1C here?
Its protection from cytokine death is -14.9% (inactive).

With COc1ccc(S(=O)(=O)N(C)C[C@@H]2Oc3c(NC(=O)c4cnccn4)cccc3C(=O)N([C@@H](C)CO)C[C@H]2C)cc1 as the compound, how does the protection from cytokine death read?
The protection from cytokine death was 6.69% (inactive).

Which protection from cytokine death does the source give for C[C@@H]1CN([C@@H](C)CO)C(=O)c2cccc(NC(=O)Nc3cccc4ccccc34)c2O[C@H]1CN(C)S(=O)(=O)c1ccc(OC(F)(F)F)cc1 here?
Its protection from cytokine death is -128% (inactive).

With C[C@@H]1CN([C@@H](C)CO)C(=O)c2cccc(NC(=O)Nc3cccc4ccccc34)c2O[C@H]1CN(C)S(=O)(=O)c1cn(C)cn1 as the compound, how does the protection from cytokine death read?
Its protection from cytokine death is -7.7% (inactive).

Which protection from cytokine death does the source give for C[C@@H]1CN([C@@H](C)CO)C(=O)c2cccc(NC(=O)Nc3cccc4ccccc34)c2O[C@H]1CN(C)S(=O)(=O)c1cccc(F)c1 here?
Its protection from cytokine death is -13.6% (inactive).

For C[C@@H]1CN([C@@H](C)CO)C(=O)c2cccc(NC(=O)Nc3cccc4ccccc34)c2O[C@H]1CN(C)S(=O)(=O)c1cccs1, which protection from cytokine death is on record?
Its protection from cytokine death is -2.28% (inactive).

For COc1ccc(S(=O)(=O)N(C)C[C@@H]2Oc3c(NC(=O)Nc4c(C)noc4C)cccc3C(=O)N([C@@H](C)CO)C[C@H]2C)cc1, which protection from cytokine death is on record?
Its protection from cytokine death is -2.07% (inactive).

Which protection from cytokine death does the source give for C[C@@H]1CN([C@@H](C)CO)C(=O)c2cccc(NC(=O)Nc3cccc4ccccc34)c2O[C@H]1CN(C)S(=O)(=O)c1ccc2c(c1)oc(=O)n2C here?
Its protection from cytokine death is 4.91% (inactive).

Which protection from cytokine death does the source give for COc1ccc(S(=O)(=O)N(C)C[C@@H]2Oc3c(NS(=O)(=O)c4ccccc4)cccc3C(=O)N([C@@H](C)CO)C[C@H]2C)cc1 here?
The protection from cytokine death was 4.09% (inactive).

With COc1ccc(S(=O)(=O)N(C)C[C@@H]2Oc3c(NC(=O)Nc4ccc5c(c4)OCO5)cccc3C(=O)N([C@@H](C)CO)C[C@H]2C)cc1 as the compound, how does the protection from cytokine death read?
The protection from cytokine death was 9.8% (inactive).

For Cc1ccc(S(=O)(=O)N(C)C[C@H]2Oc3c(NC(=O)Nc4cccc5ccccc45)cccc3C(=O)N([C@@H](C)CO)C[C@@H]2C)cc1, which protection from cytokine death is on record?
Its protection from cytokine death is -9.39% (inactive).

Which protection from cytokine death does the source give for C[C@@H]1CN([C@@H](C)CO)C(=O)c2cccc(NC(=O)Nc3cccc4ccccc34)c2O[C@H]1CN(C)CC1CC1 here?
Its protection from cytokine death is -29.1% (inactive).

With N#Cc1ccc2cc(Br)c(C(F)(F)P(=O)(O)O)cc2c1 as the compound, how does the protection from cytokine death read?
Its protection from cytokine death is -34.9% (inactive).

With COc1ccc(S(=O)(=O)Nc2cccc3c2O[C@@H](CN(C)S(=O)(=O)c2ccc(OC)cc2)[C@H](C)CN([C@@H](C)CO)C3=O)cc1 as the compound, how does the protection from cytokine death read?
The protection from cytokine death was -0.665% (inactive).

Which protection from cytokine death does the source give for COc1ccccc1S(=O)(=O)N(C)C[C@@H]1Oc2c(NC(=O)Nc3cccc4ccccc34)cccc2C(=O)N([C@@H](C)CO)C[C@H]1C here?
Its protection from cytokine death is -1.88% (inactive).

Which protection from cytokine death does the source give for COc1ccc(S(=O)(=O)N(C)C[C@@H]2Oc3c(NC(=O)NC(C)C)cccc3C(=O)N([C@@H](C)CO)C[C@H]2C)cc1 here?
The protection from cytokine death was -1.33% (inactive).

Which protection from cytokine death does the source give for COc1ccc(S(=O)(=O)N(C)C[C@@H]2Oc3c(NS(=O)(=O)c4cn(C)cn4)cccc3C(=O)N([C@@H](C)CO)C[C@H]2C)cc1 here?
Its protection from cytokine death is -12.2% (inactive).

For COc1ccc(S(=O)(=O)N(C)C[C@@H]2Oc3c(NC(=O)Nc4cccc5ccccc45)cccc3C(=O)N([C@@H](C)CO)C[C@H]2C)cc1OC, which protection from cytokine death is on record?
The protection from cytokine death was 34.5% (inactive).

With C[C@@H]1CN([C@@H](C)CO)C(=O)c2cccc(NC(=O)Nc3cccc4ccccc34)c2O[C@H]1CN(C)C(=O)NC1CCCCC1 as the compound, how does the protection from cytokine death read?
The protection from cytokine death was -35.9% (inactive).

For C[C@H]1CN([C@@H](C)CO)C(=O)c2cccc(NC(=O)NC3CCCCC3)c2O[C@@H]1CN(C)S(C)(=O)=O, which protection from cytokine death is on record?
The protection from cytokine death was -7.31% (inactive).

Which protection from cytokine death does the source give for C[C@@H]1CN([C@@H](C)CO)C(=O)c2cccc(NC(=O)Nc3cccc4ccccc34)c2O[C@H]1CN(C)C(=O)Nc1ccc(F)cc1 here?
The protection from cytokine death was -27.4% (inactive).

With C[C@@H]1CN([C@@H](C)CO)C(=O)c2cccc(NC(=O)Nc3cccc4ccccc34)c2O[C@H]1CN(C)S(=O)(=O)c1ccc2c(c1)OCCCO2 as the compound, how does the protection from cytokine death read?
Its protection from cytokine death is 25.8% (inactive).

For C[C@@H]1CN([C@@H](C)CO)C(=O)c2cccc(NC(=O)Nc3cccc4ccccc34)c2O[C@H]1CN(C)S(=O)(=O)c1ccc2c(n1)N(C)CCO2, which protection from cytokine death is on record?
The protection from cytokine death was 22.7% (inactive).

With COc1ccc(S(=O)(=O)N(C)C[C@@H]2Oc3c(NC(=O)c4nc5ccccc5s4)cccc3C(=O)N([C@@H](C)CO)C[C@H]2C)cc1 as the compound, how does the protection from cytokine death read?
The protection from cytokine death was -19.4% (inactive).

Which protection from cytokine death does the source give for C[C@@H]1CN([C@@H](C)CO)C(=O)c2cccc(NC(=O)Nc3cccc4ccccc34)c2O[C@H]1CN(C)C(=O)Nc1ccc2c(c1)OCO2 here?
Its protection from cytokine death is -28.7% (inactive).

With C[C@@H]1CN([C@@H](C)CO)C(=O)c2cccc(NC(=O)Nc3cccc4ccccc34)c2O[C@H]1CN(C)S(=O)(=O)c1ccccc1 as the compound, how does the protection from cytokine death read?
The protection from cytokine death was 16.5% (inactive).

Which protection from cytokine death does the source give for COc1ccc(S(=O)(=O)N(C)C[C@@H]2Oc3c(NC(=O)NC4CCCCC4)cccc3C(=O)N([C@@H](C)CO)C[C@H]2C)cc1 here?
Its protection from cytokine death is 7.69% (inactive).

Which protection from cytokine death does the source give for COc1ccc(S(=O)(=O)N(C)C[C@@H]2Oc3ccc(NC(=O)Nc4cccc5ccccc45)cc3C(=O)N([C@@H](C)CO)C[C@H]2C)cc1 here?
The protection from cytokine death was -13.2% (inactive).

Which protection from cytokine death does the source give for COc1ccc(S(=O)(=O)N(C)C[C@@H]2Oc3c(NS(=O)(=O)c4ccc(F)cc4)cccc3C(=O)N([C@@H](C)CO)C[C@H]2C)cc1 here?
Its protection from cytokine death is 8.48% (inactive).

For CNC[C@@H]1Oc2c(NC(=O)Nc3cccc4ccccc34)cccc2C(=O)N([C@@H](C)CO)C[C@H]1C, which protection from cytokine death is on record?
Its protection from cytokine death is -5.76% (inactive).

Which protection from cytokine death does the source give for COc1ccc(S(=O)(=O)N(C)C[C@@H]2Oc3c(NC(=O)C4CCCCC4)cccc3C(=O)N([C@@H](C)CO)C[C@H]2C)cc1 here?
The protection from cytokine death was -8.99% (inactive).

For C[C@@H]1CN([C@@H](C)CO)C(=O)c2cccc(NC(=O)Nc3cccc4ccccc34)c2O[C@H]1CN(C)S(=O)(=O)c1ccccc1F, which protection from cytokine death is on record?
Its protection from cytokine death is -7.82% (inactive).

For COc1ccc(S(=O)(=O)N(C)C[C@@H]2Oc3c(NC(=O)c4ccncc4)cccc3C(=O)N([C@@H](C)CO)C[C@H]2C)cc1, which protection from cytokine death is on record?
Its protection from cytokine death is 0.628% (inactive).

Which protection from cytokine death does the source give for COc1ccc(NC(=O)N(C)C[C@@H]2Oc3c(NC(=O)Nc4cccc5ccccc45)cccc3C(=O)N([C@@H](C)CO)C[C@H]2C)cc1 here?
Its protection from cytokine death is -28.7% (inactive).

For COc1ccc(S(=O)(=O)N(C)C[C@@H]2Oc3c(NC(=O)Nc4ccc(C(F)(F)F)cc4)cccc3C(=O)N([C@@H](C)CO)C[C@H]2C)cc1, which protection from cytokine death is on record?
The protection from cytokine death was 7.51% (inactive).

With COc1ccc(S(=O)(=O)N(C)C[C@@H]2Oc3c(NS(C)(=O)=O)cccc3C(=O)N([C@@H](C)CO)C[C@H]2C)cc1 as the compound, how does the protection from cytokine death read?
Its protection from cytokine death is -4.24% (inactive).

Which protection from cytokine death does the source give for COc1ccc(NC(=O)Nc2cccc3c2O[C@@H](CN(C)S(=O)(=O)c2ccc(OC)cc2)[C@H](C)CN([C@@H](C)CO)C3=O)cc1 here?
The protection from cytokine death was 13.4% (inactive).

For COc1ccc(S(=O)(=O)N(C)C[C@@H]2Oc3c(NC(=O)Nc4cccc5ccccc45)cccc3C(=O)N([C@H](C)CO)C[C@@H]2C)cc1, which protection from cytokine death is on record?
Its protection from cytokine death is 13.8% (inactive).

With COc1ccc(S(=O)(=O)N(C)C[C@@H]2Oc3c(NC(=O)c4cccc5ccccc45)cccc3C(=O)N([C@@H](C)CO)C[C@H]2C)cc1 as the compound, how does the protection from cytokine death read?
Its protection from cytokine death is 1.13% (inactive).

For C[C@@H]1CN([C@@H](C)CO)C(=O)c2cccc(NC(=O)Nc3cccc4ccccc34)c2O[C@H]1CN(C)S(C)(=O)=O, which protection from cytokine death is on record?
The protection from cytokine death was -4.98% (inactive).

Tested on: INS-1E cytokine-induced death rescue, ATP luminescence, 48 h
Test: as above
Details: not given

Which AC50 does the source give for C[C@@H]1CN([C@@H](C)CO)C(=O)c2cccc(NC(=O)Nc3cccc4ccccc34)c2O[C@H]1CN(C)S(=O)(=O)c1ccc2c(c1)OCCO2 here?
The AC50 was 1.62 µM and 4.81 µM.

Which AC50 does the source give for COc1ccc(S(=O)(=O)N(C)C[C@@H]2Oc3c(NC(=O)Nc4ccccc4)cccc3C(=O)N([C@@H](C)CO)C[C@H]2C)cc1 here?
The AC50 was > 26 µM (inactive).

Which AC50 does the source give for Cc1ccc(S(=O)(=O)N(C)C[C@@H]2Oc3c(NC(=O)Nc4cccc5ccccc45)cccc3C(=O)N([C@H](C)CO)C[C@H]2C)cc1 here?
The AC50 was > 23.5 µM (inactive).

From PubChem BioAssay AID488844 (Broad Institute, 2010)
